The record followed here is patent publication US11191766B2, “Methods of treating pediatric cancers” (Loxo Oncology, Inc., priority 2016, dated 2021).

Molecules are shown by their SMILES. Counter-ions that a name gives are not always drawn.

The nature of series [1]: Hygroscopicity: dynamic vapor sorption (DVS) / exposure to humidity. The format is physicochemical. As to conditions: for hygroscopicity: non-hygroscopic = less than a 2% weight gain at 25° C. and 80% RH after 24 to 48 hours. The procedure: For the DVS measurement a sample of crystalline form (I-HS) was cycled through changing humidity conditions to determine its hygroscopicity. The sample was analyzed using a Surface Measurement System DVS-1 Dynamic Vapor Sorption System. […] Data was collected in 1 minute intervals. Nitrogen was used as the carrier gas. […] After completion of the sorption cycle, the sample was dried using the same procedure, but all the way down to 0% RH and finally taken back to the starting point of 20% RH. The weight change during the sorption/desorption cycles were plotted, allowing for the hygroscopic nature of the sample to be determined.
The crystalline form (I-HS), as noted previously, is non-hygroscopic. […] Given this tendency, use of the AM(HS) compound would require significant handling precautions during storage and manufacture to prevent this change in form from occurring whereas the crystalline form (I-HS) requires no such precautions during manufacture of the API.

A short description of series [2]: Accelerated stability study in an LDPE bag at 40° C./75% RH for five weeks. Format: physicochemical.
Series [3] concerns Infantile Fibrosarcoma with NTRK3-ETV6 Fusion. As to the kind of experiment: Phase 1 pediatric study of oral liquid formulation, case of infantile fibrosarcoma (MR imaging response). The format is in vivo, human.
The conditions of series [4]: first two cycles; fever and influenza A considered not related.
A short description of series [5]: Flow properties (Carr's and Hausner Index). The format is physicochemical. An excerpt: The differences in flow properties can make the development of a solid oral dosage form more difficult for the amorphous API vs. the crystalline API.

Regarding `O=C(Nc1cnn2ccc(N3CCC[C@@H]3c3cc(F)ccc3F)nc12)N1CC[C@H](O)C1.O=S(=O)(O)O` [AM(HS), (S)—N-(5-((R)-2-(2,5-difluorophenyl)pyrrolidin-1-yl)-pyrazolo[1,5-a]pyrimidin-3-yl)-3-hydroxypyrrolidine-1-carboxamide hydrogen sulfate], the hygroscopicity result in series [1] is “deliquesce upon exposure to humidity”. In addition, the “chemical impurity levels over the course of the study” value in series [2] is given as “neither the AM(HS) or crystalline form (I-HS) exhibited a significant changes in chemical impurity levels”.
`O=C(Nc1cnn2ccc(N3CCC[C@@H]3c3cc(F)ccc3F)nc12)N1CC[C@H](O)C1` [Compound I-HS, (S)—N-(5-((R)-2-(2,5-difluorophenyl)pyrrolidin-1-yl)-pyrazolo[1,5-a]pyrimidin-3-yl)-3-hydroxypyrrolidine-1-carboxamide hydrogen sulfate]: the “response on repeat scans” value in series [3] (end of Cycle 2, size reduction confirmed, continued decrease in enhancement) is recorded as “partial response”. For the same compound, the “interval reduction in the size and enhancement of the mass from baseline (MR of the brain and neck)” value in series [3] (end of cycle 1 (day 28), BID, patient) was “more than 90%”. Besides, in series [3] (throughout cycle 1), the “clinical observation noted by the parents” value was “improved engagement and playfulness”. In series [4], the “adverse events related to compound” value is “no adverse events related to Compound I-HS”.
For the compound `O=C(Nc1cnn2ccc(N3CCC[C@@H]3c3cc(F)ccc3F)nc12)N1CC[C@H](O)C1` [crystalline form (I-HS), (S)—N-(5-((R)-2-(2,5-difluorophenyl)pyrrolidin-1-yl)-pyrazolo[1,5-a]pyrimidin-3-yl)-3-hydroxypyrrolidine-1-carboxamide hydrogen sulfate], the “flow properties compared with amorphous API” value in series [5] is recorded as “better flow properties”. Also, in series [1], the “change in crystalline form during DVS (XRPD post vs pre DVS)” value was “no change” and the hygroscopicity result was “non-hygroscopic”. Further, in series [1] (DVS), the “hysteresis between sorption and desorption cycles” value is on record as “very small hysteresis”. Also, the “increase in mass during the sorption cycle” value in series [1] (between 0% and 90% RH) is on record as “about 1.7%”. Also, in series [2], the “chemical impurity levels over the course of the study” value is “neither the AM(HS) or crystalline form (I-HS) exhibited a significant changes in chemical impurity levels”.
